Molecules are shown by their SMILES.

Assay [1] has as its target T1, HPK full length, T165E S171E (Homo sapiens, UniProt Q92918, S171E/T165E).
T1 construct: HPK full length, T165E S171E: 0.125 nM
Briefly: HPK1-FL HTRF Enzymatic Assay ("HTRF"). Type of assay: biochemical. As to conditions: ATP 1 mM, read-out: HPK1 Ki (nM) H = HTRF. The method, then:
Example B1: HPK1-FL HTRF Enzymatic Assay (“HTRF”)
HPK-FL enzyme phosphorylates Biotin-SLP-76 substrate in the presence of ATP at 1 mM and varying concentrations of test compound. Product is detected by FRET using Eu-anti-pSLP76 Ab and SA-XL665. Also see www.cisbio.com/HTRF for additional HTRF technology information.
• Echo555 compound dispenser • Agilent Bravo • Perkin Elmer Envision Final Assay Conditions: • HPK full length, T165E S171E: 0.125 nM • Biotin-SLP76: 100 nM • ATP: 1 mM (ATP Km=20 μM) • Eu-anti-pSLP76: 2 nM • SA-XL665: 8.3 nM • Preincubation time: 30 min • Kinase reaction time: 60 min • Temperature: ambient • Total volume: 12 μl • ATP^app Km: 17.7 μM Materials: • Assay plate: White ProxiPlate 384 F (PerkinElmer cat #6008289) • Kinase: HPK full length double mutant • Substrate: Biotin-SLP76 • ATP: 100 mM ATP • BSG: 2% BSG • DMSO: DMSO(Sigma cat #34869-100ML) • Reaction Buffer: H2O/50 mM HEPES, pH 7.5/10 mM MgCl2/2 mM TCEP/0.01% Brij-35/0.01% BSG • Detection mix: Eu-anti-pSLP76/SA-XL665 (Cisbio, #610SAXAC) Assay Procedure Ki Determination:
To a 384 well Proxiplate with 80 nL compound or DMSO spotted on was added 4 μl/well kinase mix. The mixture was preincubated for 30 minutes and then 4 μl/well substrate mix was added. The solution was incubated for 60 min and then 4 μl/well detection mix was added. The solution was incubated for another 60 min. The plates were then loaded onto a Perkin Elmer Envision and the TR-FRET signal was measured at 615 and 665 nm. A ratio of […] was used to calculate the % activity at each concentration of compound.
(Time-resolved FRET reads energy transfer from a long-lived donor to a nearby acceptor.)

In assay [2] the test system is primary human pan T cells. The assay can be described thus: Human T-Cell IL2 Induction Assay. The assay is classed as cell-based. As to conditions: assayed concentration 0.31 μM; anti-CD3/anti-CD28 stimulated primary human pan T cells. The protocol:
Example B3: Human T-Cell IL2 Induction Assay
Anti-CD3 and anti-CD28 activates TCR signaling in primary human pan T cells leading to IL-2 promoter induction. Secreted IL-2 in cell culture supernatant is detected by electrochemiluminescence using a capture antibody against IL-2 and an anti-IL-2 antibody labeled with SULFO-tag.
Incubate primary human pan T cells with varying concentrations of test compounds for 30 minutes in a humidified incubator at 37° C. and 5% CO2. Transfer cells to a plate pre-coated with a fixed concentration of anti-human CD3 (determined separately for each donor lot) and add soluble anti-human CD28 (final concentration=1 μg/ml). Stimulate cells in a humidified incubator at 37° C. and 5% CO2 for 4 hours. Transfer 25 μl of supernatant to a MSD single spot plate pre-coated with an anti-human IL-2 antibody. Incubate MSD plate overnight at 4° C. with gentle shaking. Wash MSD plate 4× with wash buffer. Add SULFO-tagged detection antibody at a 1:50 dilution and incubate at room temperature shaking for 2 hours. Wash MSD plate 4× with wash buffer and add 150 μl 2×MSD read buffer. Read on an MSD instrument. […]
Exemplary compounds of Formula (I) were tested in the human T-cell IL-2 induction assays. The % increase measured for IL-2 in cells treated by the test compounds relative to untreated cells are provided in Table B2 for certain compounds.

T1 sequence (Q92918 whole entry T165E/S171E): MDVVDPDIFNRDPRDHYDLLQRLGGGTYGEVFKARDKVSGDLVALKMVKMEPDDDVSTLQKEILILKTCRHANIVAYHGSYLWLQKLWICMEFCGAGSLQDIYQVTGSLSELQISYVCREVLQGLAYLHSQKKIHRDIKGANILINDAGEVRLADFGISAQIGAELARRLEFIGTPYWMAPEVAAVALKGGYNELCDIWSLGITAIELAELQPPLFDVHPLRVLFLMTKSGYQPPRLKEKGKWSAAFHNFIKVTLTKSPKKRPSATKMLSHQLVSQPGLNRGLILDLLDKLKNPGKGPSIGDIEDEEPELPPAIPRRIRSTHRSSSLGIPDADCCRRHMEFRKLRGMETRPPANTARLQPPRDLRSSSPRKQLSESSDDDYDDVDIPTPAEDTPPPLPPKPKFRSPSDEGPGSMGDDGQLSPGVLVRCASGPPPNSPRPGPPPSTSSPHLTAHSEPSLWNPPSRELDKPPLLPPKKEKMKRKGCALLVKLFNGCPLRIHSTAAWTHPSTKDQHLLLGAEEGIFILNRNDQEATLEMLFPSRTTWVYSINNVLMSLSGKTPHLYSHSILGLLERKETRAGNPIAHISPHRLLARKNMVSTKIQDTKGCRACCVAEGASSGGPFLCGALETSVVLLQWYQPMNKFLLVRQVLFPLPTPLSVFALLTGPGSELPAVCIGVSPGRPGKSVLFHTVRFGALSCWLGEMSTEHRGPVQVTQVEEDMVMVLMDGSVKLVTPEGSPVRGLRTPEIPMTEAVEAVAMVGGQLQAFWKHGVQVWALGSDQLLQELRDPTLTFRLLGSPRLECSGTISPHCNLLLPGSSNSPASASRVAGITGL

In the case of `Cc1c(N)cncc1-c1cc2cc(Nc3cc4n(n3)CC(=O)N(C)CC43CC3)ncc2c(C)n1` [Compound 101, 2′-((6-(5-amino-4-methylpyridin-3-yl)-8-methyl-2,7-naphthyridin-3-yl)amino)-6′-methyl-5′,6′-dihydrospiro[cyclopropane-1,4′-pyrazolo[1,5-d][1,4]diazepin]-7′(8′H)-one], in assay [1], the Ki is 0.27 nM. In addition, the “% IL-2 increase relative to untreated cells” value in assay [2] came out at 421%.

One may read the Ki as the equilibrium dissociation constant of an inhibitor or competing ligand from its target.

Values taken from patent US12297210B2, “Naphthyridine compounds and uses thereof” (Genentech, Inc., priority 2018, dated 2025).
